# Measurements as given in BindingDB's records for doi:10.1021/jm00036a015 (University of Minnesota, 1994).
# Assay: The binding affinity on delta-opioid receptor using [3H]- DPDPE as radioligand
row,Structure (SMILES),Ki [nM]
1,"N=C(N)NCCN1CC[C@]23c4c5ccc(O)c4O[C@H]2c2[nH]c4c(c2C[C@@]3(O)[C@H]1C5)C[C@@]1(O)[C@H]2Cc3ccc(O)c5c3C1(CCN2CC1CC1)[C@H]4O5 [17-(cyclopropylmethyl)-17'-(2-guanidinoethyl-6,6',7,7'-tetradehydro-4,5:4',5'-diepoxy-6,6'-imino-7,7'-bimorphinan-3,3',14,14'-tetrol]",37
2,"NCCN1CC[C@]23c4c5ccc(O)c4O[C@H]2c2[nH]c4c(c2C[C@@]3(O)[C@H]1C5)C[C@@]1(O)[C@H]2Cc3ccc(O)c5c3[C@@]1(CCN2CC1CC1)[C@H]4O5 [17-(cyclopropylmethyl)-17'-aminoethyl-6,6',7,7'-tetradehydro-4,5:4',5'-diepoxy-6,6'-imino-7,7'-bimorphinan-3,3',14,14'-tetrol]",137
3,"CCCCN1CC[C@]23c4c5ccc(O)c4O[C@H]2c2[nH]c4c(c2C[C@@]3(O)[C@H]1C5)C[C@@]1(O)[C@H]2Cc3ccc(O)c5c3[C@@]1(CCN2CC1CC1)[C@H]4O5 [17-(cyclopropylmethyl)-17'-butyl-6,6',7,7'-tetradehydro-4,5:4',5'-diepoxy-6,6'-imino-7,7'-bimorphinan-3,3',14,14'-tetrol]",15
